Reference: PubChem BioAssay AID248 (DTP/NCI, 2004)
“And” between values parts separate entries of the source, which are not always exact repeats. Equal entries are not always repeated. Toxic doses and inconclusive results are not listed.

Tested on: L1210 leukemia ip in BDF1 mice, survival T/C
Test: NCI In Vivo Anticancer Drug Screen. Data for tumor model L1210 Leukemia (intraperitoneal) in B6D2F1 (BDF1) mice
Conditions: endpoint: mean survival time, higher = longer survival
Procedure, shortened: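 Read-out is survival time, reported as the treated-group measurement over the vehicle-control measurement.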

[1] = dose: 100.0 mg/kg/injection, schedule: Q01DX009 (ip), vehicle: saline with Tween-80
[2] = dose: 100.0 mg/kg/injection, schedule: Q04DX003 (ip), vehicle: saline with Tween-80
[3] = dose: 200.0 mg/kg/injection, schedule: Q01DX009 (ip), vehicle: saline with Tween-80
[4] = dose: 200.0 mg/kg/injection, schedule: Q04DX003 (ip), vehicle: saline with Tween-80
[5] = dose: 400.0 mg/kg/injection, schedule: Q01DX009 (ip), vehicle: saline with Tween-80
[6] = dose: 400.0 mg/kg/injection, schedule: Q04DX003 (ip), vehicle: saline with Tween-80
[7] = dose: 100.0 mg/kg/injection, schedule: Q04DX003 (ip), vehicle: Klucel (hydroxypropylcellulose) (HPC)
[8] = dose: 200.0 mg/kg/injection, schedule: Q04DX003 (ip), vehicle: Klucel (hydroxypropylcellulose) (HPC)
[9] = dose: 400.0 mg/kg/injection, schedule: Q04DX003 (ip), vehicle: Klucel (hydroxypropylcellulose) (HPC)

Compound: CC[C@@]1(O)C(=O)OCc2c1cc1n(c2=O)Cc2cc3cc(OC)ccc3nc2-1
- T/C (dose: 0.36 mg/kg/injection, schedule: Q01DX001 (ip), vehicle: saline): 114 % of control
- T/C (dose: 0.55 mg/kg/injection, schedule: Q01DX001 (ip), vehicle: saline): 122 % of control
- T/C (dose: 0.83 mg/kg/injection, schedule: Q01DX001 (ip), vehicle: saline): 120 % of control
- T/C (dose: 0.97 mg/kg/injection, schedule: Q01DX009 (ip), vehicle: saline): 203 % of control
- T/C (dose: 1.4 mg/kg/injection, schedule: Q01DX009 (ip), vehicle: saline): 225 % of control
- T/C (dose: 2.2 mg/kg/injection, schedule: Q01DX009 (ip), vehicle: saline): 97 % of control
- T/C (dose: 2.5 mg/kg/injection, schedule: Q01DX001 (ip), vehicle: saline): 162 % of control
- T/C (dose: 4.4 mg/kg/injection, schedule: Q01DX001 (ip), vehicle: saline): 160 % of control
- T/C (dose: 5.0 mg/kg/injection, schedule: Q01DX001 (ip), vehicle: saline): 176 % of control
- T/C (dose: 6.6 mg/kg/injection, schedule: Q01DX001 (ip), vehicle: saline): 178 % of control
- T/C (dose: 10.0 mg/kg/injection, schedule: Q01DX001 (ip), vehicle: saline): 172 % of control and 250 % of control
- T/C (dose: 15.0 mg/kg/injection, schedule: Q01DX001 (ip), vehicle: saline): 122 % of control
- T/C (dose: 20.0 mg/kg/injection, schedule: Q01DX001 (ip), vehicle: saline): 112 % of control
- T/C (dose: 36.0 micrograms/kg/injection, schedule: Q01DX009 (ip), vehicle: saline): 95 % of control
- T/C (dose: 56.0 micrograms/kg/injection, schedule: Q01DX009 (ip), vehicle: saline): 104 % of control
- T/C (dose: 84.0 micrograms/kg/injection, schedule: Q01DX009 (ip), vehicle: saline): 115 % of control
- T/C (dose: 127.0 micrograms/kg/injection, schedule: Q01DX009 (ip), vehicle: saline): 121 % of control
- T/C (dose: 287.0 micrograms/kg/injection, schedule: Q01DX009 (ip), vehicle: saline): 123 % of control
- T/C (dose: 430.0 micrograms/kg/injection, schedule: Q01DX009 (ip), vehicle: saline): 117 % of control
- T/C (dose: 646.0 micrograms/kg/injection, schedule: Q01DX009 (ip), vehicle: saline): 150 % of control

Compound: Cn1nnnc1N/N=C(\Br)c1ccccc1
- T/C [1]: 96 % of control
- T/C [2]: 104 % of control
- T/C [3]: 93 % of control
- T/C [4]: 104 % of control
- T/C [5]: 95 % of control
- T/C [6]: 100 % of control

Compound: CCCCCCC(=O)/C=C/c1ccc(Cl)cc1Cl
- T/C (dose: 100.0 mg/kg/injection, schedule: Q01DX009 (ip), vehicle: acetone): 95 % of control
- T/C (dose: 100.0 mg/kg/injection, schedule: Q04DX003 (ip), vehicle: acetone): 86 % of control
- T/C (dose: 200.0 mg/kg/injection, schedule: Q01DX009 (ip), vehicle: acetone): 90 % of control
- T/C (dose: 200.0 mg/kg/injection, schedule: Q04DX003 (ip), vehicle: acetone): 91 % of control
- T/C (dose: 400.0 mg/kg/injection, schedule: Q01DX009 (ip), vehicle: acetone): 95 % of control
- T/C (dose: 400.0 mg/kg/injection, schedule: Q04DX003 (ip), vehicle: acetone): 93 % of control

Compound: Cc1ccc2cc(N(C)C)ccc2[n+]1C
- T/C (dose: 3.13 mg/kg/injection, schedule: Q04DX003 (ip), vehicle: saline): 101 % of control
- T/C (dose: 6.25 mg/kg/injection, schedule: Q04DX003 (ip), vehicle: saline): 106 % of control
- T/C (dose: 12.5 mg/kg/injection, schedule: Q04DX003 (ip), vehicle: saline): 96 % of control and 109 % of control

Compound: COc1ccc(CCS(=O)(=O)N=[N+]=[N-])cc1
- T/C [2]: 104 % of control
- T/C [4]: 116 % of control
- T/C [6]: 112 % of control

Compound: Cc1ccc(NC(=O)c2ccc(Cl)cc2Cl)cc1C
- T/C (dose: 100.0 mg/kg/injection, schedule: Q01DX001 (ip), vehicle: Klucel (hydroxypropylcellulose) (HPC)): 90 % of control
- T/C [1]: 106 % of control
- T/C [7]: 108 % of control
- T/C (dose: 200.0 mg/kg/injection, schedule: Q01DX001 (ip), vehicle: Klucel (hydroxypropylcellulose) (HPC)): 90 % of control
- T/C [3]: 97 % of control
- T/C [8]: 93 % of control
- T/C (dose: 400.0 mg/kg/injection, schedule: Q01DX001 (ip), vehicle: Klucel (hydroxypropylcellulose) (HPC)): 92 % of control
- T/C [5]: 100 % of control
- T/C [9]: 94 % of control

Compound: Oc1ccc(CN2CCCCC2)c2cccnc12
- T/C (dose: 75.0 mg/kg/injection, schedule: Q01DX001 (ip), vehicle: carboxymethylcellulose (CMC)): 106 % of control
- T/C (dose: 150.0 mg/kg/injection, schedule: Q01DX001 (ip), vehicle: carboxymethylcellulose (CMC)): 106 % of control

Compound: C=CCNC(=S)NCC=C
- T/C (dose: 100.0 mg/kg/injection, schedule: Q01DX009 (ip), vehicle: Klucel (hydroxypropylcellulose) (HPC)): 102 % of control
- T/C [7]: 102 % of control
- T/C (dose: 200.0 mg/kg/injection, schedule: Q01DX009 (ip), vehicle: Klucel (hydroxypropylcellulose) (HPC)): 100 % of control
- T/C [8]: 104 % of control
- T/C (dose: 400.0 mg/kg/injection, schedule: Q01DX009 (ip), vehicle: Klucel (hydroxypropylcellulose) (HPC)): 100 % of control
- T/C [9]: 102 % of control
